Measurements from patent US10646501B2, “Reducing the reproductive capacity of mammals” (priority 2012, dated 2020).

Key:
[1] = epoxide assay of chemical reactivity (alkylating assay using 4-(p-nitrobenzyl) pyridine); format: physicochemical; parameters: key to Chemical reactivity (ranking): 1—least chemical reactivity/biological activity; 6—most chemical reactivity/biological activity; conditions: for Chemical reactivity (ranking): reactivity in epoxide assay, rank 1 to 6
Description: The chemical reactivity of the epoxides can determined in an alkylating assay using 4-(p-nitrobenzyl) pyridine (NBP) based on the method reported in “Detection of epoxides with 4-(p-nitrobenzyl) pyridine.” Agarwal et. al. 1979, Bull. Environm. Contam. Toxicol. 23, 825-829, incorporated herein by reference.
Compared chemical (reactivity in epoxide assay) to biological activity (follicle depletion)

[2] = test system: rat pup ovaries (ovarian follicles); experiment: in vitro ovarian culture bioassay of follicle depletion (ovaries cultured 8 days, histology, follicle counts); format: cell-based; parameters: key to Biological activity (ranking, follicle depletion): 1—least chemical reactivity/biological activity; 6—most chemical reactivity/biological activity; conditions: for follicle depletion, diepoxide combined with Triptolide / Biological activity (ranking, follicle depletion): diepoxide 30 μM + Trip 5 nM; for Biological activity (ranking, follicle depletion): rank 1 to 6
Description: The biological activity of the epoxides can be evaluated in an in vitro bioassay using rat pup ovaries based on method reported in “Characterization of a rat in vitro ovarian culture system to study the ovarian toxicant 4-vinylcyclohexene diepoxide.” Devine et. al. 2002, Taxicol. Appl. Pharmacol. 184, 107-115, incorporated herein by reference. Biological activity can be determined by follicle counts in ovarian sections after week long culture with micro molar concentrations of the epoxide. In general, biologically active epoxides will also be chemically active as well but not vice versa.
FIGS. 3A, 3B and 3C illustrate an in vitro culture system for evaluating the efficacy of follicle-depletion compositions (developed by Patrick J. Devine). As set forth in the various examples herein, ovaries are cultured with VCD with or without triptolide in serum-free media for 8 days, no gonadotropins present, no media changes and active ingredients added just once at start of culture. Ovaries are collected and processed for histology to perform follicle counting.
In vitro bioassay of follicle depletion, ovaries cultured for 8 days with different chemicals
Control—no chemicals, Triptolide—5 nM (Trip), Diepoxides. RDE, CHDE, Quetol, ERL 4221, BDE, GDE, each at 30 μM+Trip 5 nM
Ovaries were prepared for histological analysis for determination of follicle depletion

[3] = test system: male rat fertility; conditions: oral exposure; cited from earlier work
[4] = test system: ovarian failure; experiment: VCD alone as the only active ingredient, premature ovarian failure; format: in vivo; conditions: low concentrations or short exposure durations <15 days
Description: Premature ovarian failure is when no more ovulations occur in spite of eggs/follicles being present in an ovary. For compositions and methods to function as a means of population control, the ovarian failure desirably occurs rapidly, for example within 10 days of treatment for rodents.

[5] = test system: Sprague Dawley rats (Rattus norvegicus); conditions: via gavage; cited from earlier work
[6] = 30 μm VCD alone, cultured ovary, 8 days

Row | Structure (SMILES) | Chemical reactivity (ranking) [1] | follicle depletion, diepoxide combined with Triptolide ([2]; ovaries cultured 8 days) | Biological activity (ranking, follicle depletion) ([2]; ovaries cultured 8 days) | other results
1 | C(CCOCC1CO1)COCC1CO1 (centres unmarked) [BDE, 1,4-butanediol diglycidyl ether] | 6 | caused significant follicle depletion | 3 | 
2 | C1CC(COCC2CO2)CCC1COCC1CO1 (centres unmarked) [CHDE, 1,4-cyclohexanedimethanol diglycidyl ether] | 3 | caused significant follicle depletion | 4 | 
3 | O=C(OCC1CCC2OC2C1)C1CCC2OC2C1 (centres unmarked) [ERL 4221, 3,4-epoxy-cyclohexyl-methyl-3,4-epoxycyclohexyl carboxylate] | 1 | caused significant follicle depletion | 6 | chemical reactivity in words ([1]; among the six diepoxides): least chemically reactive; biological activity in words ([2]; when combined with Trip, among the six diepoxides): most biologically active
4 | OCC(COCC1CO1)OCC1CO1 (centres unmarked) [GDE, glycerol diglycidyl ether] | 5 | caused significant follicle depletion | 2 | 
5 | C(COCC1CO1)OCC1CO1 (centres unmarked) [Quetol, ethylene glycol diglycidyl ether] | 2 | caused significant follicle depletion | 5 | 
6 | Oc1cccc(OCC2CO2)c1 (centres unmarked) [RDE, resorcinol glycidyl ether] | 4 | did not cause significant follicle depletion | 1 | 
7 | CC(C)[C@]12O[C@H]1[C@@H]1O[C@]13[C@]1(O[C@H]1C[C@H]1C4=C(CC[C@@]13C)C(=O)OC4)[C@@H]2O [Triptolide, triptolide] |  |  |  | follicle depletion, triptolide alone ([2]; Triptolide 5 nM alone, ovaries cultured 8 days): did not cause significant follicle depletion; effect on male rat fertility [3]: compromise male rat fertility to ultimate sterility
8 | C1CC2OC2CC1C1CO1 (centres unmarked) [VCD, 4-vinylcyclohexene diepoxide] |  |  |  | premature ovarian failure [4]: did not cause premature ovarian failure; primordial follicle depletion [5]: efficacious to cause non-regenerating primordial follicle depletion; effect on the other stages of follicles [2, 6]: not significantly affected; reduction in primordial follicles [2, 6]: 38%
